ChEMBL document CHEMBL1129255, “Identification of a retinoic acid receptor alpha subtype specific agonist” (J Med Chem, 1996)

Columns and labels:
[1] = target: T1, Retinoic acid receptor alpha (Homo sapiens, UniProt P10276); experiment: Binding affinity for baculovirus-expressed Retinoic acid receptor RAR alpha
T1 sequence (P10276 whole entry): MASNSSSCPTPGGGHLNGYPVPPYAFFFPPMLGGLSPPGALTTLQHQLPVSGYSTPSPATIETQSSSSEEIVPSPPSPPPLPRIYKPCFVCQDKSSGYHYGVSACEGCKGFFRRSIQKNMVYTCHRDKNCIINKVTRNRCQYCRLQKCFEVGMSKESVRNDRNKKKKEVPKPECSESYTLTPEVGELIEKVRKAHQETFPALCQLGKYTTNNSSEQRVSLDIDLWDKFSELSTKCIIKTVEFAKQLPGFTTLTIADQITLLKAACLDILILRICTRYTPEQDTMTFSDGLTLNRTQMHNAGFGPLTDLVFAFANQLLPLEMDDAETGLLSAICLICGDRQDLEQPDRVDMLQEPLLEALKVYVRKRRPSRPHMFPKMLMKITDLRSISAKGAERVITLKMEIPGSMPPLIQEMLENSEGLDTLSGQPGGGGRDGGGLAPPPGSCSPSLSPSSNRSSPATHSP

[2] = target: T2, Retinoic acid receptor gamma (Homo sapiens, UniProt P13631); experiment: Binding affinity for baculovirus-expressed Retinoic acid receptor RAR gamma
T2 sequence (P13631 whole entry): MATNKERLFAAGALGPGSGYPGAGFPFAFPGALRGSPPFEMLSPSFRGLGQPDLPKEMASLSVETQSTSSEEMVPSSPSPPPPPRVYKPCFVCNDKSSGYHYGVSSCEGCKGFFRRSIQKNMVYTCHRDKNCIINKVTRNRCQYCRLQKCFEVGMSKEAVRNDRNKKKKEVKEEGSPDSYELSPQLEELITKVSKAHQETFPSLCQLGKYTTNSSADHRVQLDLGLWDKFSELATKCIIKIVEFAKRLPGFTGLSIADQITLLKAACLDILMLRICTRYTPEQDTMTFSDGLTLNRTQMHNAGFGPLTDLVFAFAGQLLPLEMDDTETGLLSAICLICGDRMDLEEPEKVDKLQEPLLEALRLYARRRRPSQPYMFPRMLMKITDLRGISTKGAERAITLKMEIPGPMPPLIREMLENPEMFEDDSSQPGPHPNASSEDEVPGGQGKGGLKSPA

[3] = target: T3, Retinoic acid receptor beta (Homo sapiens, UniProt P10826); experiment: Binding affinity for baculovirus-expressed Retinoic acid receptor RAR beta
T3 sequence (P10826 whole entry): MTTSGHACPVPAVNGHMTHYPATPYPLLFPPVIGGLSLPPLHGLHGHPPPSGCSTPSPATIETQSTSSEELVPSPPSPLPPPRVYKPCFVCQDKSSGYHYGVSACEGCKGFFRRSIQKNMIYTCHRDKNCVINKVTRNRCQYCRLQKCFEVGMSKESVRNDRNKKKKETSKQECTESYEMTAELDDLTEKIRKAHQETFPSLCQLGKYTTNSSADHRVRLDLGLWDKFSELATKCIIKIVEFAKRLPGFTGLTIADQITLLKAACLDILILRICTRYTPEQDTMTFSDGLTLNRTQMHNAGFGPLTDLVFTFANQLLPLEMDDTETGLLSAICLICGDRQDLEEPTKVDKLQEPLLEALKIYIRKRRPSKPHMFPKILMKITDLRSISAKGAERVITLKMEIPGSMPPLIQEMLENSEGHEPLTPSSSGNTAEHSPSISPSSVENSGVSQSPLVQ

Row | SMILES | Kd [1] [µM] | Kd [2] [µM] | Kd [3] [µM]
1 | CC1(C)CCC(C)(C)c2c1cc(C(=O)Nc1ccc(C(=O)O)c(F)c1)c(O)c2Br | 0.0044 | > 30 | 3.04
2 | CC1(C)CCC(C)(C)c2c1cc(C(=O)Nc1cc(F)c(C(=O)O)c(F)c1)c(O)c2Br | 0.0084 | > 30 | 17.4
